Test results from US8993558B2, “Compositions comprising a calcium channel blocker or a calmodulin blocker for use in the removal of hyperplastic skin lesions” (priority 2008, dated 2015).
Structures can show the parent of a compound that is named as a salt.

Legend:
keloid [1] = test: Topical treatment of keloids in patients; assay type: in vivo, human; settings: for keloid appearance: Example 17: 100 mg/ml ointment, keloid over mastoid process (Felodipine right, Diltiazem left); for keloid relapse: Example 17: follow up at 6 and 9 months
Procedure: A person had keloids that had formed over several areas of the donor site scar from a previous hair transplant several years ago over the occipital area of the scalp from mastoid process to mastoid process. The keloids over the mastoid process on right side were initially treated with Felodipine 100 mg/ml ointment. The patient had been given instructions to apply the Felodipine 100 mg/ml ointment several times per day to the right side only and the patient was seen weekly in follow up.

keloid [2] = test: Topical treatment of keloids in patients; assay type: in vivo, human; settings: Example 17: applied for two weeks twice daily to the donor surgical sites
callouses = test: Topical treatment of callouses in patients; assay type: in vivo, human
Procedure: A person had thick painful callouses over the lateral aspect of the 1st metatarsal-phallangeal joint on both feet. A mixture of Diltiazem dissolved at a concentration of 100 mg/ml in an ointment was given to the patient with instructions to apply the ointment 2-3 times per day in small amounts directly to only the callous locate on the 1st metatarsal-phallangeal joint of the left foot, and specifically not to use the ointment on the right foot.
A recreational tennis player had bilateral thickened calluses over the right and left 5th distal metatarsal head of both feet. These callouses were causing their significant pain and disability when they played tennis. The patient was treated with Trifluoperazine and Felodipine impregnated bandages.
Initially a water-proof bandage on which the mixture of Trifluoperazine 30 mg/ml Gel was applied to the adsorbent pad of the bandage with the pad being sized to cover the thickest area of the callous over the was right 5th distal metatarsal head. The pad of the waterproof bandage was applied to the callous and patient was instructed to replace the bandage 1-2 times per day with a new Trifluoperazine impregnated bandage after each shower/bath.
The patient was then given a one month supply of water-proof bandages on which the mixture of Felodipine 100 mg/ml ointment had been applied to the adsorbent pad of the bandage with the pad being sized to cover the thickest area of the callous over the was on the left 5th distal metatarsal head. The pad of the waterproof bandage was applied to the callous and patient was instructed to replaced the bandage 1-2 times per day with a new Felodipine impregnated bandage after each shower/bath.

psoriatic plaques = test: Topical treatment of psoriatic plaques; assay type: in vivo, human
plantar wart = test: Topical treatment of plantar warts in patients
Procedure: The warts were 2-5 mm in diameter. The patient was instructed to apply the cream 2-3 times per day to the three plantar warts, Patient used the medication regularly for approximately 4 weeks.
A mixture of Diltiazem dissolved at a concentration of 100 mg/ml in an ointment was applied in small amounts directly to a single small 3 mm diameter plantar wart on sole under the 1st metatarsal-phallangeal joint on the left foot of a person. The patient applied the cream to the gauze pad of a bandage and then taped the bandage over the sole of the foot so that the Diltiazem 100 mg/ml ointment was in contact with the wart. The bandage was replaced daily after showering and this was continued for six weeks.
A person applied 0.1 ml of Trifluoperazine Topical Gel 30 mg/ml twice daily topically to a approximately […] plantar wart that was large enough to make walking painful.

skin tag = test: Treatment of skin tags in patients (injection or topical); assay type: in vivo, human
Procedure: A person had multiple skin tags around their neck where they wore a gold necklace. A mixture of Diltiazem dissolved at a concentration of 100 mg/ml in an ointment was given to the patient with instructions to apply the ointment 1-2 times per day in small amounts directly to the skin tags.
(§1) A person applied 0.1 ml of Trifluoperazine Topical Gel 30 mg/ml twice daily topically to several genital warts and a skin tag in the right axillary area.

genital warts = test: Topical treatment of genital (veneral) warts in patients; assay type: in vivo, human
Procedure: as §1
A person applied 0.1 ml of Diltiazem supplied in 3 ml syringes with removable caps dissolved at a concentration of 100 mg/ml in an ointment twice daily topically to several genital warts.

[3] = tested on: outwardly-rectifying chloride channel; settings: 50 microM; cited from earlier work
P-glycoprotein = settings: hepatocyte canalicular membrane; cited from earlier work
corn = settings: person
[4] = Example 13: 0.1 ml Topical Gel 30 mg/ml twice daily, three weeks
[5] = Example 18: Topical Gel 30 mg/ml, four weeks of use, follow up a month later

With `CCOC(=O)C1=C(C)NC(C)=C(C(=O)OC)C1c1cccc(Cl)c1Cl` (stereo not drawn) [Felodipine, Ethyl methyl 4-(2,3-dichlorophenyl)-1,4-dihydro-2,6-dimethylpyridine-3,5-dicarboxylate] the keloid appearance (keloid [1]; person, after 1 week) was “noticeable softening”, the keloid appearance (keloid [1]; after 2 weeks) was “noticeable flattening and continued softening” and the keloid appearance (keloid [1]; by six weeks) was “flattened to the level of the adjoining skin”. For the same compound, the keloid relapse (keloid [1]) was “no relapse of the initial cosmetic improvement”, the “new keloid formation at FUE graft donor sites” value (keloid [2]) was “no new keloid formation” and the “pain when running and playing tennis” value (callouses; Example 14: 100 mg/ml ointment impregnated bandage 1-2 times per day, left foot, after 3 weeks) was “pain free on both sides”. For the same compound, the psoriatic plaque clearing (psoriatic plaques; Example 11: Topical ointment 100 mg/ml, left hand and wrist) was “significant clearing”.

For `CN1CCN(CCCN2c3ccccc3Sc3ccc(C(F)(F)F)cc32)CC1.Cl.Cl` [Trifluoperazine, 10-[3-(4-Methylpiperazin-1-yl)propyl]-2-trifluoromethyl-phenothiazine dihydrochloride], the plantar wart clearing (plantar wart; Example 13: 0.1 ml Topical Gel 30 mg/ml twice daily, person, three weeks) was “significant clearing”, the “irritation or erythema around the lesion” value (plantar wart; [4]) was “no irritation or erythema” and the “pain on walking and weight bearing” value (plantar wart; [4]) was “weight bearing without pain”. For the same compound, the plantar wart outcome (plantar wart; Example 13: Topical Gel 30 mg/ml, stopped for the past two weeks, six weeks follow up) was “the wart was no longer visible”, the plantar wart recurrence (plantar wart; Example 13: gel not used for over 3 months, seen at 4 months) was “no recurrence of the wart” and the “callous softness and thickness” value (callouses; Example 14: 30 mg/ml Gel impregnated bandage 1-2 times per day, right foot, person, within one week) was “a softening and a reduction in the thickness of the callous”. The pain or disability (callouses; Example 14: 30 mg/ml Gel impregnated bandage, right foot (untreated left side still painful), after two weeks) was “no longer having any pain or disability”, the callous thickness (callouses; Example 14: 30 mg/ml Gel impregnated bandage, right foot, after two weeks) was “had thinned” and the “pain while playing tennis” value (callouses; Example 14: 30 mg/ml Gel impregnated bandage, right foot, within one week) was “reduced pain while playing tennis”. The skin tag clearing (skin tag; Example 18: 0.1 ml Topical Gel 30 mg/ml twice daily, right axillary area, three weeks) was “significant clearing”, the skin tag clearing (skin tag; [5]) was “complete clearing” and the genital wart clearing (genital warts; Example 18: 0.1 ml Topical Gel 30 mg/ml twice daily, person, three weeks) was “significant clearing”. The genital wart clearing (genital warts; [5]) was “complete clearing”.

For `COc1cc2c(c(OC)c1OC)-c1ccc(OC)c(=O)cc1[C@@H](NC(C)=O)CC2` [colchicine], the “block of outwardly-rectifying chloride channel” value (“block” for short) [3] is listed as “blocked”.

In the case of `CC[C@]1(O)C[C@@H]2CN(CCc3c([nH]c4ccccc34)[C@@](C(=O)OC)(c3cc4c(cc3OC)N(C)[C@H]3[C@@](O)(C(=O)OC)[C@H](OC(C)=O)[C@]5(CC)C=CCN6CC[C@]43[C@@H]65)C2)C1` [vinblastine], the “block” value [3] is listed as “blocked”.

In the case of `COc1cccc2c1C(=O)c1c(O)c3c(c(O)c1C2=O)C[C@@](O)(C(C)=O)C[C@@H]3O[C@H]1C[C@H](N)[C@H](O)[C@H](C)O1` [daunorubicin], the “block” value [3] is given as “blocked” and the “transport of permanently charged amphiphilic cations” value (P-glycoprotein) is given as “inhibited”.

For `COc1ccc([C@@H]2Sc3ccccc3N(CCN(C)C)C(=O)[C@@H]2OC(C)=O)cc1` [Diltiazem, (+)-cis-3-Acetoxy-5-(2-dimethylaminoethyl)-2,3-dihydro-2-(4-methoxyphenyl)-1,5-benzothiazapin-4(5H)-one hydrochloride], the keloid appearance (keloid [1]; person, after 1 week) was “noticeable softening”, the keloid appearance (keloid [1]; after 2 weeks) was “noticeable flattening and continued softening” and the keloid appearance (keloid [1]; by six weeks) was “flattened to the level of the adjoining skin”. The keloid relapse (keloid [1]) was “no relapse of the initial cosmetic improvement”, the plantar wart size (plantar wart; Example 5: 100 mg/ml ointment on bandage daily, 3 mm wart, person, after about two weeks) was “dramatically shrunk in size” and the plantar wart outcome (plantar wart; Example 5: 100 mg/ml ointment on bandage daily, person, six weeks) was “not detected”. The plantar wart recurrence (plantar wart; Example 5: person, reassessed after 3 months) was “no evidence of recurrence of the plantar wart”, the “new keloid formation at FUE graft donor sites” value (keloid [2]) was “no new keloid formation” and the callous thickness (callouses; Example 6: 100 mg/ml ointment 2-3 times per day, left foot only (right foot control unchanged), person, three weeks) was “dramatic reduction in the thickness of the callous”. For the same compound, the skin tags remaining (skin tag; Example 9: 100 mg/ml ointment 1-2 times per day, multiple neck skin tags, person, one month) was “only a few small skin tags remaining”, the skin tag outcome (skin tag; Example 9: 100 mg/ml ointment off and on, person, after 3 months) was “completely cleared” and the “pain associated with wearing shoes” value (corn; Example 7: 100 mg/ml ointment 2-3 times per day, one month) was “significant reduction in pain”. The corn thickness (corn; Example 7: 100 mg/ml ointment 2-3 times per day, second toe, one month) was “noticeable reduction in the thickness of the corn”, the corn outcome (corn; Example 7: 100 mg/ml ointment off and on, after 6 months) was “the corn had dissappeared” and the psoriatic plaque clearing (psoriatic plaques; Example 11: 100 mg/ml ointment, left leg) was “significant clearing”. The genital wart clearing (genital warts; Example 19: 100 mg/ml ointment, follow up at 5 weeks) was “complete clearing of the genital warts” and the genital wart clearing (genital warts; Example 19: 0.1 ml of 100 mg/ml ointment twice daily, person, three weeks) was “significant clearing”.

For `C=C[C@H]1C[N@@]2CC[C@H]1C[C@@H]2[C@@H](O)c1ccnc2ccc(OC)cc12` [quinidine], the “transport of permanently charged amphiphilic cations” value (P-glycoprotein) is listed as “inhibited”.
